Like-named read-outs stand apart in the source and are kept apart here. Blank lines part the entries; values can stand above or below the compound they belong to.
Experiments:
[1] = cited from earlier work
[2] = plasma free fraction; cited from earlier work
HepaRG spheroids = assay: Combined HCI (HCS) and cellular ATP 3D assay in HepaRG spheroids; details: for HepaRG <25x Avg Cmax ATP / HepaRG <100x Avg Cmaxu ATP: ATP endpoint; for HepaRG <25x Avg Cmax ATP / HepaRG <25x Avg Cmax HCS / HepaRG <25x Avg Cmax All: cut-off <25x Avg Cmax; for HepaRG <100x Avg Cmaxu ATP / HepaRG <100x Avg Cmaxu HCS / HepaRG <100x Avg Cmaxu All: cut-off <100x Avg Cmaxu; for HepaRG <25x Avg Cmax HCS / HepaRG <100x Avg Cmaxu HCS: HCS endpoints; for HepaRG <25x Avg Cmax All: all endpoints (ATP and HCS); for HepaRG Cmax max All / HepaRG Cmax min All / HepaRG <10 uM All / HepaRG <100x Avg Cmaxu All: all endpoints; for HepaRG Cmax max All: Cmax max used; for HepaRG Cmax min All: Cmax min used; for HepaRG <10 uM All: cut-off <10 uM; for AC50 / minimal effective concentration: Homo sapiens; for HepaRG <25x Avg Cmax ATP / HepaRG <100x Avg Cmaxu ATP / HepaRG <25x Avg Cmax HCS / HepaRG <100x Avg Cmaxu HCS / HepaRG <25x Avg Cmax All / HepaRG Cmax max All / HepaRG Cmax min All / HepaRG <10 uM All / HepaRG <100x Avg Cmaxu All / AC50 / minimal effective concentration: HepaRG
hLiMTs [3] = assay: Combined HCI (HCS) and cellular ATP 3D assay in hLiMTs; details: for AC50 / minimal effective concentration: Homo sapiens; for hLiMTs <25x Avg Cmax ATP / hLiMTs <100x Avg Cmaxu ATP: ATP endpoint; for hLiMTs <25x Avg Cmax ATP / hLiMTs <25x Avg Cmax HCS / hLiMTs <25x Avg Cmax All: cut-off <25x Avg Cmax; for hLiMTs <100x Avg Cmaxu ATP / hLiMTs <100x Avg Cmaxu HCS / hLiMTs <100x Avg Cmaxu All: cut-off <100x Avg Cmaxu; for hLiMTs <25x Avg Cmax HCS / hLiMTs <100x Avg Cmaxu HCS: HCS endpoints; for hLiMTs <25x Avg Cmax All: all endpoints (ATP and HCS); for hLiMTs Cmax max All / hLiMTs Cmax min All / hLiMTs <10 uM All / hLiMTs <100x Avg Cmaxu All: all endpoints; for hLiMTs Cmax max All: Cmax max used; for hLiMTs Cmax min All: Cmax min used; for hLiMTs <10 uM All: cut-off <10 uM
HepG2 cells [4] = details: cited from earlier work
hLiMTs [5] = details: cited from earlier work; for hLiMTs ATP <100uM: In vitro Assay, ref Proctor 2017; for hLiMTs/100uM, Proctor (2017): ATP, IC50 threshold 100 µM, ref Proctor et al. 2017
[6] = Plasma free fraction (fu) and unbound Cmax (Cmax,u); assay type: in vitro ADME, human; details: unbound plasma Cmax
[7] = system: THLE or HepG2 cells, isolated mitochondria, BSEP; details: cited from earlier work; for Partition Hybrid HRM Score / Ro2 Hybrid HRM Score: In vitro Assay, ref Aleo 2019; for Partition Hybrid HRM Score ≥4, Aleo (2019) / Partition Hybrid HRM Score ≥8, Aleo (2019) / Rule of Two hybrid HRM Score ≥3, Aleo (2019) / Rule of Two hybrid HRM Score ≥8, Aleo (2019): Modeled in vitro assays (cytotoxicity, mitochondrial dysfunction, BSEP), ref Aleo et al. 2019
PHH [8] = details: cited from earlier work; for PHH/100uM, Proctor (2017): 2D PHH, ATP, IC50 threshold 100 µM, ref Proctor et al. 2017; for PHH ATP <100uM: In vitro Assay, ref Proctor 2017
HepG2 = system: HepG2; set-up: method as in Albrecht 2019; details: In vitro Assay; ref Albrecht 2019; cited from earlier work
PHH spheroids = details: cited from earlier work
PHH [9] = details: In vitro Assay; ref Albrecht 2019; cited from earlier work
[10] = read-out: Human plasma Cmax; total plasma Cmax.tot, median of 9 literature references; cited from earlier work
[11] = cited from earlier work; remark: listed apart in the source
HepG2 cells [12] = details: In vitro Assay; ref Persson 2013; cited from earlier work
[13] = system: isolated mouse liver mitochondria; details: In vitro Assay; ref Porceddu 2012; cited from earlier work
[14] = system: THLE-Null and THLE-3A4 cells; details: In vitro Assay; ref Gustafsson 2014; cited from earlier work
[15] = system: HepG2 cells, primary human hepatocytes; details: In vitro Assay; ref Garside 2014; cited from earlier work
[16] = Microtissue model structural based (HCI), combined HCS and ATP, MEC < 25 × Cmax.tot cut-off

- HepaRG <25x Avg Cmax ATP (HepaRG spheroids): -ve
- HepaRG <100x Avg Cmaxu ATP (HepaRG spheroids): -ve
- HepaRG <25x Avg Cmax HCS (HepaRG spheroids): -ve
- HepaRG <100x Avg Cmaxu HCS (HepaRG spheroids): -ve
- HepaRG <25x Avg Cmax All (HepaRG spheroids): -ve
- HepaRG Cmax max All (HepaRG spheroids): -ve
- HepaRG Cmax min All (HepaRG spheroids): -ve
- HepaRG <10 uM All (HepaRG spheroids): -ve
- HepaRG <100x Avg Cmaxu All (HepaRG spheroids): -ve
- hLiMTs <25x Avg Cmax ATP (hLiMTs [3]): -ve
- hLiMTs <100x Avg Cmaxu ATP (hLiMTs [3]): -ve
- hLiMTs <25x Avg Cmax HCS (hLiMTs [3]): -ve
- hLiMTs <100x Avg Cmaxu HCS (hLiMTs [3]): -ve
- hLiMTs <25x Avg Cmax All (hLiMTs [3]): -ve
- hLiMTs Cmax max All (hLiMTs [3]): -ve
- hLiMTs Cmax min All (hLiMTs [3]): -ve
- hLiMTs <10 uM All (hLiMTs [3]): -ve
- hLiMTs <100x Avg Cmaxu All (hLiMTs [3]): -ve
- Human plasma Cmax,u [6]: 0.101 µM
SMILES: CN(C)CCC(c1ccc(Cl)cc1)c1ccccn1 (stereo not drawn) [chlorpheniramine]
- DILI severity category (Chen et al. [2016]) ([1]; LTKB DILIrank category, ref Chen et al. 2016): No
- DILI severity category (Chen 2016) ([1]; human DILI classification, LTKB DILIrank, ref Chen et al. 2016): No
- DILI severity category ([1]; human DILI severity, ref Chen et al.): No
- DILI +VE (5-8), DILI -VE (-4) ([1]; ref Chen 2016): -VE
- DILI severity category ([1]; ref Chen 2016): vNo-DILI-Concern
- fu [2]: 0.277
- AC50 (HepaRG spheroids; read-out: ATP endpoint AC50): 129 µM
- minimal effective concentration (HepaRG spheroids; read-out: ATP endpoint MEC): 120 µM
- AC50 (HepaRG spheroids; read-out: HCS endpoint AC50): 119 µM
- minimal effective concentration (HepaRG spheroids; read-out: HCS endpoint MEC): 14.3 µM
- DILI prediction HepaRG spheroids (HCS-MEC) (HepaRG spheroids; [16]): -VE
- AC50 (hLiMTs [3]; read-out: ATP endpoint AC50): 30.9 µM
- minimal effective concentration (hLiMTs [3]; read-out: ATP endpoint MEC): 10.7 µM
- AC50 (hLiMTs [3]; read-out: HCS endpoint AC50): 98.5 µM
- minimal effective concentration (hLiMTs [3]; read-out: HCS endpoint MEC): 66.6 µM
- DILI prediction hLiMTs (HCS-MEC) (hLiMTs [3]; [16]): -VE
- Structural based (HCI) (HepG2 cells [4]; In vitro Assay, ref O'Brien 2006): +VE
- DILI in vitro assay prediction, O'Brien (2006) (HepG2 cells [4]; Structural based (HCI), HepG2, ref O'Brien et al. 2006): -VE
- hLiMTs ATP <100uM (hLiMTs [5]): +VE (IC50 threshold of 100 µM)
- hLiMTs/100uM, Proctor (2017) (hLiMTs [5]): +VE (IC50 threshold of 100 µM)
- Partition Hybrid HRM Score [7]: -VE
- Ro2 Hybrid HRM Score [7]: -VE
- Partition Hybrid HRM Score ≥4, Aleo (2019) [7]: -VE
- Partition Hybrid HRM Score ≥8, Aleo (2019) [7]: -VE
- Rule of Two hybrid HRM Score ≥3, Aleo (2019) [7]: -VE
- Rule of Two hybrid HRM Score ≥8, Aleo (2019) [7]: -VE
- PHH/100uM, Proctor (2017) (PHH [8]): -VE
- PHH ATP <100uM (PHH [8]): -VE
- Cytotoxicity HepG2 48 hrs (HepG2): -VE
- hLiMTs ATP <20 x Cmax (PHH spheroids; In vitro Assay, ref Vorrink 2018): -VE
- DILI in vitro assay prediction, Vorrink (2018) (PHH spheroids; PHH spheroids, ATP, 14 days, IC20 < 20 × Cmax.tot, ref Vorrink et al. 2018): -VE
- Cytotoxicity PHH 48 hrs (PHH [9]): -VE
- Cmax [10]: 0.366 µM
- Assigned DILI category ([11]; Chen et al. 2016 or literature alignment, ref Chen et al. 2016): 1
- In vivo DILI ([11]; ref Albrecht 2019): -VE
- In vivo DILI ([11]; ref Aleo 2019): -VE
- In vivo DILI ([11]; ref O'Brien 2006): -VE
- In vivo DILI ([11]; ref Proctor 2017): +VE
- In vivo DILI ([11]; ref Vorrink 2018): -VE
- In vivo DILI ([11]; ref Xu 2008): +VE

- HepaRG <25x Avg Cmax ATP (HepaRG spheroids): +ve
- HepaRG <100x Avg Cmaxu ATP (HepaRG spheroids): +ve (<100x Avg Cmaxu)
- HepaRG <25x Avg Cmax HCS (HepaRG spheroids): +ve
- HepaRG <100x Avg Cmaxu HCS (HepaRG spheroids): +ve (<100x Avg Cmaxu)
- HepaRG <25x Avg Cmax All (HepaRG spheroids): +ve
- HepaRG Cmax max All (HepaRG spheroids): +ve
- HepaRG Cmax min All (HepaRG spheroids): +ve
- HepaRG <10 uM All (HepaRG spheroids): -ve
- HepaRG <100x Avg Cmaxu All (HepaRG spheroids): +ve (<100x Avg Cmaxu)
- hLiMTs <25x Avg Cmax ATP (hLiMTs [3]): +ve
- hLiMTs <100x Avg Cmaxu ATP (hLiMTs [3]): -ve
- hLiMTs <25x Avg Cmax HCS (hLiMTs [3]): +ve
- hLiMTs <100x Avg Cmaxu HCS (hLiMTs [3]): +ve (<100x Avg Cmaxu)
- hLiMTs <25x Avg Cmax All (hLiMTs [3]): +ve
- hLiMTs Cmax max All (hLiMTs [3]): +ve
- hLiMTs Cmax min All (hLiMTs [3]): +ve
- hLiMTs <10 uM All (hLiMTs [3]): -ve
- hLiMTs <100x Avg Cmaxu All (hLiMTs [3]): +ve (<100x Avg Cmaxu)
- Human plasma Cmax,u [6]: 55.474 µM
SMILES: CCCC(CCC)C(=O)O [valproic acid]
- Cluser analysis (HepG2 cells [12]): -VE
- Structural based (HCI) (HepG2 cells [12]): -VE
- in vitro data EC2<=1x Cmax [13]: +VE
- in vitro data EC20<=2uM [13]: -VE
- fu [2]: 0.080
- AC50 (HepaRG spheroids; read-out: ATP endpoint AC50): 41.3 µM
- minimal effective concentration (HepaRG spheroids; read-out: ATP endpoint MEC): 12.3 µM
- AC50 (HepaRG spheroids; read-out: HCS endpoint AC50): 148 µM
- minimal effective concentration (HepaRG spheroids; read-out: HCS endpoint MEC): 45.6 µM
- AC50 (hLiMTs [3]; read-out: ATP endpoint AC50): 7080 µM
- minimal effective concentration (hLiMTs [3]; read-out: ATP endpoint MEC): 6220 µM
- minimal effective concentration (hLiMTs [3]; read-out: HCS endpoint MEC): 1600 µM
- hLiMTs ATP <100uM (hLiMTs [5]): -VE
- hLiMTs/100uM, Proctor (2017) (hLiMTs [5]): -VE
- Partition Hybrid HRM Score [7]: +VE
- Ro2 Hybrid HRM Score [7]: +VE
- Partition Hybrid HRM Score ≥4, Aleo (2019) [7]: +VE (Partition Hybrid HRM Score ≥4)
- Partition Hybrid HRM Score ≥8, Aleo (2019) [7]: +VE (Partition Hybrid HRM Score ≥8)
- Rule of Two hybrid HRM Score ≥3, Aleo (2019) [7]: +VE (Rule of Two hybrid HRM Score ≥3)
- Rule of Two hybrid HRM Score ≥8, Aleo (2019) [7]: -VE
- PHH/100uM, Proctor (2017) (PHH [8]): -VE
- PHH ATP <100uM (PHH [8]): -VE
- Cytotoxicity HepG2 48 hrs (HepG2): +VE
- Cytotoxicity PHH 48 hrs (PHH [9]): +VE
- Cmax [10]: 693 µM
- THLE-Null [14]: -VE
- Cluster 1-6 +VE Assay [15]: +VE
